Holding throughout (type): in vivo
Test [1] concerns Hordeum jubatum (foxtail barley, HORJU). Put plainly: Field trial, percent visual weed control of foxtail barley. As for the experimental part:
(§1) These trials were conducted under field conditions in western Canada. The trials were designed as split-block, factorial designs with timing (spring vs. fall), Authority 480 (sulfentrazone) rate (0, 52 or 105 g ai/ha), Kerb™ SC (propyzamide) rate (0, 450 or 900 g ai/ha) as the main factors and Edge™ Granular (ethalfluralin) application (0 or 1100 g ai/ha) as the split-block factor. Edge™ was applied to test plots at a rate of 1100 g ai/ha using a granular applicator in the fall of 2011 (17 October to 9 November). Authority 480 and Kerb™ SC treatments were applied to test plots either in the fall prior to or after Edge™ application (17 October to 3 November), or in the spring of 2012 (24 April to 5 May). An untreated control was also included in each trial. Following herbicide treatment application in the spring of 2012, lentils were seeded or field peas were seeded into plots. Weed efficacy assessments were taken at 9-15 days after the spring application (DAA2) for an initial evaluation, 33 DAA2 for an early evaluation, 48-52 DAA2 for a mid evaluation, and 77-85 DAA2 for a late evaluation. The trial sites had naturally occurring populations of weeds. The weed spectrum included, but was not limited to, Avena fatua (wild oats, AVEFA), Hordeum jubatum (foxtail barley, HORJU), Kochia scoparia (kochia, KCHSC) and Sinapis arvensis L. (wild mustard, SINAR).
(§2) The treated plots and control plots were rated blind at various intervals after application. Ratings were based of Percent (%) Visual weed control, where 0 corresponds to no injury and 100 corresponds to complete kill.
(§3) Colby's equation was used to determine the herbicidal effects expected from the mixtures (Colby, S. R. Calculation of the synergistic and antagonistic response of herbicide combinations. Weeds 1967, 15, 20-22).
(§4) The following equation was used to calculate the expected activity of mixtures containing two active ingredients, A and B:
(§5) Expected=A+B−(A×B/100) • A=observed efficacy of active ingredient A at the same concentration as used in the mixture; • B=observed efficacy of active ingredient B at the same concentration as used in the mixture.
(§6) For mixtures containing three herbicidal active ingredients, the following equation can be used to calculate the expected activity:
(§7) [formula] • A=observed efficacy of a first active ingredient at the same concentration as used in the mixture; • B=observed efficacy of a second active ingredient B at the same concentration as used in the mixture; • C=observed efficacy of a third active ingredient C at the same concentration as used in the mixture.

Test [2] relates to Kochia scoparia (kochia, KCHSC). Put plainly: Field trial, percent visual weed control of kochia. As for the experimental part: as §1, §2, §3, §4, §5, §6, §7
In test [3] the test system is Sinapis arvensis L. (wild mustard, SINAR). Put plainly: Field trial, percent visual weed control of wild mustard. The protocol: as §1, §2, §3, §4, §5, §6, §7
Test [4] concerns Avena fatua (wild oats, AVEFA). Put plainly: Field trial, percent visual weed control of wild oats. The protocol: as §1, §2, §3, §4, §5, §6, §7
Where [5] appears, read: Table 1, Fall application, sulfentrazone 52 g ai/ha.
Where [6] appears, read: Table 1, Fall application, sulfentrazone 105 g ai/ha.
Where [7] appears, read: Table 2, Spring application, sulfentrazone 52 g ai/ha.
The mark [8] stands for this setting: Table 3, Spring application, sulfentrazone 52 g ai/ha.
Where [9] appears, read: Table 4, Fall application, sulfentrazone 52 g ai/ha.
Setting [10] is: Table 1, Fall application, propyzamide 450 g ai/ha.
Setting [11] is: Table 1, Fall application, propyzamide 900 g ai/ha.
The mark [12] stands for this setting: Table 2, Spring application, propyzamide 450 g ai/ha.
[13] abbreviates: Table 2, Spring application, propyzamide 900 g ai/ha.
The mark [14] stands for this setting: Table 3, Spring application, propyzamide 450 g ai/ha.
[15] abbreviates: Table 3 (Spring applications), ethalfluralin 1100 g ai/ha (Edge Granular applied in the fall).
[16] abbreviates: Table 4, Fall application, ethalfluralin 1100 g ai/ha.

SMILES strings stand for the structures.

On to `Cc1nn(-c2cc(NS(C)(=O)=O)c(Cl)cc2Cl)c(=O)n1C(F)F` [Sulfentrazone, N-[2,4-dichloro-5-[4-(difluoromethyl)-4,5-dihydro-3-methyl-5-oxo-1H-1,2,4-triazol-1-yl]phenyl]methanesulfonamide], for which the “HORJU Obs (Observed percent weed control)” value in test [1] (setting [5]) worked out at 15%; in test [1] (setting [6]), 28%; in test [1] (setting [7]) it was 15%. Also, the “KCHSC Obs (Observed percent weed control)” value in test [2] (setting [5]) is on record as 30%; in test [2] (setting [6]), 40%; in test [2] (setting [7]), 20%; in test [2] (setting [8]), 20%; in test [2] (setting [9]), 30%. Also, the “SINAR Obs (Observed percent weed control)” value in test [3] (setting [5]) is given as 38%; in test [3] (setting [8]), 53%; in test [3] (setting [9]), 25%. Further, the “AVEFA Obs (Observed percent weed control)” value in test [4] (setting [7]) came to 0%; in test [4] (Table 2, Spring application, sulfentrazone 105 g ai/ha), 15%; in test [4] (Table 3, Spring application, sulfentrazone 105 g ai/ha) it was 0%.
`C#CC(C)(C)NC(=O)c1cc(Cl)cc(Cl)c1` [Propyzamide, 3,5-dichloro-N-(1,1-dimethyl-2-propyn-1-yl)benzamide]: the “HORJU Obs (Observed percent weed control)” value in test [1] (setting [10]) was 18%; in test [1] (setting [11]) it was 59%; in test [1] (setting [12]), 30%; in test [1] (setting [13]), 68%. Besides, the “KCHSC Obs (Observed percent weed control)” value in test [2] (setting [10]) came out at 0%; in test [2] (setting [11]), 65%; in test [2] (setting [13]), 0%; in test [2] (setting [14]) it was 17%; in test [2] (Table 4, Fall application, propyzamide 450 g ai/ha), 0%. Besides, the “SINAR Obs (Observed percent weed control)” value in test [3] (setting [11]) was 38%; in test [3] (Table 3, Spring application, propyzamide 900 g ai/ha), 10%; in test [3] (Table 4, Fall application, propyzamide 900 g ai/ha), 38%. The “AVEFA Obs (Observed percent weed control)” value in test [4] (setting [12]) and in test [4] (setting [14]) was 30% in each case.
With `C=C(C)CN(CC)c1c([N+](=O)[O-])cc(C(F)(F)F)cc1[N+](=O)[O-]` [Ethalfluralin, N-ethyl-N-(2-methyl-2-propen-1-yl)-2,6-dinitro-4-(trifluoromethyl)benzenamine], the “KCHSC Obs (Observed percent weed control)” value in test [2] (setting [15]) and in test [2] (setting [16]) was 55% throughout. The “SINAR Obs (Observed percent weed control)” value in test [3] (setting [15]) and in test [3] (setting [16]) was 0% each time. For the same compound, the “AVEFA Obs (Observed percent weed control)” value in test [4] (setting [15]) is on record as 49%.

The record behind these values is patent publication US20150057154A1, “HERBICIDAL COMPOSITIONS COMPRISING SULFENTRAZONE plus PROPYZAMIDE AND SULFENTRAZONE PLUS PROPYZAMIDE PLUS ETHALFLURALIN” (Dow AgroSciences LLC, priority 2013, published 2015).
